Measurements as given in ChEMBL document CHEMBL4483862, “Open-source discovery of chemical leads for next-generation chemoprotective antimalarials” (2018).

System: Plasmodium berghei
Assay: Luciferase/luciferin-expressing antifolate-resistant parasites were used to infect a culture of HepG2 cells that were pre-incubated with compounds. Infected hepatocytes emit light due to the luciferase reaction. Assay results are presented as the percent inhibition of light emission compared to control. […]
Assay type: functional
Settings: sporozoite; for IC90: read-out: LUCIFERASE INFECTION ASSAY - IC90
[1] = PBLUC_HILL_SLOPE 1.24, PBLUC_R_SQUARED 0.639, read-out: LUCIFERASE INFECTION ASSAY - IC50

Row | SMILES | IC90 [µM] | also measured
1 | Cc1cc(C(=O)Nc2ccc(Cl)cc2)c(C)n1-c1ccccc1 | 0.729 | IC50 (PBLUC_HILL_SLOPE 1.26, PBLUC_R_SQUARED 0.88, read-out: LUCIFERASE INFECTION ASSAY - IC50): 0.128 µM
2 | C=CCn1c(C)cc(C(=O)CSc2ccc(NC(C)=O)cc2)c1C | 2.85 | IC50 (PBLUC_HILL_SLOPE 1.26, 1.79, PBLUC_R_SQUARED 0.402, 0.760, read-out: LUCIFERASE INFECTION ASSAY - IC50): 1.34 µM
3 | O=C(COc1ccc(F)cc1)N1CCC(Cc2ccccc2)CC1 | > 10.1 | IC50 (PBLUC_HILL_SLOPE 1.27, PBLUC_R_SQUARED 0.405, read-out: LUCIFERASE INFECTION ASSAY - IC50): 4.23 µM
4 | CC1CN(C(=O)c2ccc(S(=O)(=O)Nc3ccccc3F)cc2)CC(C)O1 (configuration not stated) | 5.97 | IC50 (PBLUC_HILL_SLOPE 1.2, PBLUC_R_SQUARED 0.687, read-out: LUCIFERASE INFECTION ASSAY - IC50): 0.955 µM
5 | CSc1nc(N2CCNCC2)c2sc3c(c2n1)CCCC3 | > 10.3 | IC50 (PBLUC_HILL_SLOPE 1.21, PBLUC_R_SQUARED 0.0625, read-out: LUCIFERASE INFECTION ASSAY - IC50): > 10.3 µM
6 | CS(=O)(=O)c1nc2ccccc2n1Cc1cc(=O)n2ccccc2n1 | > 10 | IC50 (PBLUC_HILL_SLOPE 1.24, PBLUC_R_SQUARED 0.679, read-out: LUCIFERASE INFECTION ASSAY - IC50): 5.51 µM
7 | CNc1nc2cnc(Nc3ccc(C(F)(F)F)cc3)cc2n1CC1CC1 | > 10 | IC50 (PBLUC_HILL_SLOPE 1.2, PBLUC_R_SQUARED 0.377, read-out: LUCIFERASE INFECTION ASSAY - IC50): 2.12 µM
8 | CSc1nnc(-c2ccc(C(C)(C)C)cc2)n1-c1ccc(Cl)cc1 | > 9.22 | IC50 (PBLUC_HILL_SLOPE 1.19, PBLUC_R_SQUARED 0.789, read-out: LUCIFERASE INFECTION ASSAY - IC50): > 9.22 µM
9 | COC(=O)CSCCc1nc(-c2ccc(C(F)(F)F)cc2)cs1 | 8.8 | IC50 (PBLUC_HILL_SLOPE 1.19, PBLUC_R_SQUARED 0.68, read-out: LUCIFERASE INFECTION ASSAY - IC50): 1.39 µM
10 | COc1cc2c(cc1OCC(=O)Nc1ccccc1Cl)C=CC(C)(C)O2 | > 8.83 | IC50 (PBLUC_HILL_SLOPE 1.25, PBLUC_R_SQUARED 0.511, read-out: LUCIFERASE INFECTION ASSAY - IC50): 4.17 µM
11 | CN1/C(=C/C=C2c3ccccc3-c3ccccc32)C=Cc2ccccc21 | > 9.9 | IC50 (PBLUC_HILL_SLOPE 1.22, PBLUC_R_SQUARED 0.219, read-out: LUCIFERASE INFECTION ASSAY - IC50): 8.03 µM
12 | CCC(C)c1ccc(S(=O)(=O)N(Cc2ccc(C(=O)NC3CC3)cc2)C2CC2)cc1 (configuration not stated) | 2.3 | IC50 (PBLUC_HILL_SLOPE 1.25, PBLUC_R_SQUARED 0.781, read-out: LUCIFERASE INFECTION ASSAY - IC50): 0.394 µM
13 | COc1cc(CCC2CCN(CC(=O)c3c(N)n(C)c(=O)n(C)c3=O)CC2)cc(OC)c1 | > 10 | IC50 (PBLUC_HILL_SLOPE 1.27, PBLUC_R_SQUARED 0.409, read-out: LUCIFERASE INFECTION ASSAY - IC50): 5.13 µM
14 | COc1cc(-c2nc3ccc(NC(=O)c4cccnc4)cn3n2)cc(OC)c1OC | > 10 | IC50 (PBLUC_HILL_SLOPE 1.26, PBLUC_R_SQUARED 0.59, read-out: LUCIFERASE INFECTION ASSAY - IC50): 6.96 µM
15 | COc1ccc(-c2cc(NC(=O)C3CCN(C(=O)C(C)C)CC3)ccc2OC(F)F)cc1 | > 10 | IC50 (PBLUC_HILL_SLOPE 1.23, PBLUC_R_SQUARED 0.265, read-out: LUCIFERASE INFECTION ASSAY - IC50): 3.95 µM
16 | O=C(O)C1C2C=CC(O2)C1C(=O)Nc1ccc(OC(F)(F)F)cc1 (configuration not stated) | > 9.61 | IC50 (PBLUC_HILL_SLOPE 1.22, PBLUC_R_SQUARED 0.106, read-out: LUCIFERASE INFECTION ASSAY - IC50): > 9.61 µM
17 | Cc1ccc(S(=O)(=O)N(Cc2ccc(C(=O)NC3CC3)cc2)C2CC2)c(C)c1 | 0.498 | IC50 (PBLUC_HILL_SLOPE 1.22, PBLUC_R_SQUARED 0.762, read-out: LUCIFERASE INFECTION ASSAY - IC50): 0.0818 µM
18 | CSc1sc(C(=O)N/N=C/c2ccccc2)c2c1C1(CCC2)SCCS1 | > 7.85 | IC50 (PBLUC_HILL_SLOPE 1.27, PBLUC_R_SQUARED 0.257, read-out: LUCIFERASE INFECTION ASSAY - IC50): 5.56 µM
19 | COc1cc(OC)cc(-c2cc3c(Nc4ccc5c(c4)OCO5)nccc3[nH]2)c1 | 6.69 | IC50 (PBLUC_HILL_SLOPE 1.19, PBLUC_R_SQUARED 0.67, read-out: LUCIFERASE INFECTION ASSAY - IC50): 1.06 µM
20 | O=C1C2=C(Nc3ccccc3SC2c2ccccc2F)c2ccccc21 (configuration not stated) | 2.61 | IC50 (PBLUC_HILL_SLOPE 1.25, PBLUC_R_SQUARED 0.725, read-out: LUCIFERASE INFECTION ASSAY - IC50): 0.454 µM
21 | COc1ccc(-c2nc(C(=O)Nc3ccccc3N3CCN(C)CC3)cs2)cc1OC | > 10 | IC50 [1]: 2.33 µM

Row | SMILES | IC90 [µM] | also measured
22 | c1ccc(CCCNc2nnnn2-c2ccccc2)cc1 | > 10 | IC50 (PBLUC_HILL_SLOPE 1.25, PBLUC_R_SQUARED 0.199, read-out: LUCIFERASE INFECTION ASSAY - IC50): 6.08 µM
23 | COc1ccccc1-c1cc(C(=O)NCC(C)c2ccccc2)no1 (configuration not stated) | > 10 | IC50 (PBLUC_HILL_SLOPE 1.24, PBLUC_R_SQUARED 0.652, read-out: LUCIFERASE INFECTION ASSAY - IC50): 3.42 µM
24 | Cc1ccc(Cn2ccs/c2=N/C(=O)c2cc3c(s2)CCCCC3)cc1 | 0.491 | IC50 (PBLUC_HILL_SLOPE 1.2, PBLUC_R_SQUARED 0.823, read-out: LUCIFERASE INFECTION ASSAY - IC50): 0.0784 µM
25 | Cc1oc(-c2ccc(Cl)cc2)cc1C(=O)Nc1cc(-c2cc(C(C)(C)C)oc2C)nn1-c1cc(C(F)(F)F)cc(C(F)(F)F)c1 | > 5.08 | IC50 (PBLUC_HILL_SLOPE 1.26, PBLUC_R_SQUARED 0.137, read-out: LUCIFERASE INFECTION ASSAY - IC50): > 5.08 µM
26 | CCc1ccc(S(=O)(=O)Nc2cc(Sc3ccc(C)cc3)c(O)c3ccccc23)cc1 | > 10 | IC50 (PBLUC_HILL_SLOPE 1.24, PBLUC_R_SQUARED 0.466, read-out: LUCIFERASE INFECTION ASSAY - IC50): 5.98 µM
27 | CCc1ccccc1Nc1nc(N)nc(CN2CCc3ccccc32)n1 | > 10 | IC50 (PBLUC_HILL_SLOPE 1.23, PBLUC_R_SQUARED 0.247, read-out: LUCIFERASE INFECTION ASSAY - IC50): 5.31 µM
28 | O=C(NC12CC3CC(CC(C3)C1)C2)c1ccc(=O)n(Cc2ccccc2)n1 | > 10 | IC50 (PBLUC_HILL_SLOPE 1.2, PBLUC_R_SQUARED 0.803, read-out: LUCIFERASE INFECTION ASSAY - IC50): 5.96 µM
29 | NC(=O)c1ccc(CN(C2CC2)S(=O)(=O)c2ccc3c(c2)CCC3)cc1 | > 10 | IC50 (PBLUC_HILL_SLOPE 1.27, PBLUC_R_SQUARED 0.0564, read-out: LUCIFERASE INFECTION ASSAY - IC50): > 10 µM
30 | CC(C)(C)c1ccc(NC(=O)c2cc(-c3ccccc3)ncn2)cc1 | > 9.96 | IC50 (PBLUC_HILL_SLOPE 1.26, PBLUC_R_SQUARED 0.612, read-out: LUCIFERASE INFECTION ASSAY - IC50): 2.29 µM
31 | CC(=O)N(c1nc(/C=C/C(=O)c2cccc(Br)c2)cs1)c1ccc(F)cc1F | > 10 | IC50 (PBLUC_HILL_SLOPE 1.24, PBLUC_R_SQUARED 0.477, read-out: LUCIFERASE INFECTION ASSAY - IC50): 8.87 µM
32 | c1ccc(-c2nn(-c3ccccc3)cc2CSc2nncs2)cc1 | > 10 | IC50 [1]: 5.72 µM
33 | O=C(Nc1ccccc1)Nc1ccc2cc(C(=O)c3ccccc3O)cnc2c1 | 4.81 | IC50 (PBLUC_HILL_SLOPE 1.23, 8.91, PBLUC_R_SQUARED 0.971, 0.189, read-out: LUCIFERASE INFECTION ASSAY - IC50): 3.52 µM
34 | O=C(Nc1ccc(N2CCCCC2)c(C(F)(F)F)c1)c1ccc(-n2nncc2-c2ccc(Cl)cc2)cc1 | > 10 | IC50 (PBLUC_HILL_SLOPE 1.22, PBLUC_R_SQUARED 0.481, read-out: LUCIFERASE INFECTION ASSAY - IC50): 4.69 µM
35 | Cc1ccc(CSCCNC(=O)c2ccc3c[nH]nc3c2)cc1 | > 10 | IC50 (PBLUC_HILL_SLOPE 1.22, PBLUC_R_SQUARED 0.508, read-out: LUCIFERASE INFECTION ASSAY - IC50): 4.61 µM
36 | Cc1cccc(Cn2nc(C(C)(C)C)cc2C(=O)Nc2cccc(OC(F)(F)F)c2)c1 | > 7.65 | IC50 (PBLUC_HILL_SLOPE 1.23, PBLUC_R_SQUARED 0.161, read-out: LUCIFERASE INFECTION ASSAY - IC50): > 7.65 µM
37 | Cc1cc2c(cc1C)NC(c1ccc(Br)cc1)C1C(=O)CCCC1=N2 (configuration not stated) | > 8.31 | IC50 (PBLUC_HILL_SLOPE 1.27, PBLUC_R_SQUARED 0.271, read-out: LUCIFERASE INFECTION ASSAY - IC50): 6.95 µM
38 | Cc1ccc(-n2cccc2)c(NC(=O)c2c(-c3c(Cl)cccc3Cl)noc2C)c1 | > 7.74 | IC50 (PBLUC_HILL_SLOPE 1.2, PBLUC_R_SQUARED 0.354, read-out: LUCIFERASE INFECTION ASSAY - IC50): 4.14 µM
39 | COc1ccccc1CNC(=O)N/C=C/c1ccccc1Cl | > 10.4 | IC50 (PBLUC_HILL_SLOPE 1.23, PBLUC_R_SQUARED 0.697, read-out: LUCIFERASE INFECTION ASSAY - IC50): 5.38 µM
40 | Cc1ccc(-c2noc(-c3csc([C@@H]4C[C@H](O)[C@@H](CO)O4)n3)n2)cc1 | > 9.18 | IC50 (PBLUC_HILL_SLOPE 1.21, PBLUC_R_SQUARED 0.165, read-out: LUCIFERASE INFECTION ASSAY - IC50): 3.59 µM
41 | CN(C)C(=O)c1cccc(-c2cn3c(-c4ccc(C(C)(C)C)cc4)cnc3cn2)c1 | > 8.28 | IC50 (PBLUC_HILL_SLOPE 1.19, PBLUC_R_SQUARED 0.783, read-out: LUCIFERASE INFECTION ASSAY - IC50): 2.27 µM
